Source: PubChem BioAssay AID1845194 (Molecular Pharmacology Branch, DTP, NCI, 2023)

Tested on: 287954-098-R-J1 tumor spheroid viability
Assay: Anticancer human tumor 287954-098-R-J1 patient-derived Ewing sarcoma cell line growth inhibition
Settings: spheroids with HUVEC and MSC; for IC50: curve of first compound; for viability, T/C: stronger effect = lower value
Description: Multicellular complex tumor spheroid response to DNA repair inhibitors in combination with DNA-damaging drugs
This study explores the anticancer activities of DNA-damaging drugs and inhibitors of DNA damage repair, both as single agents and in combinations. Complex tumor spheroids comprised of malignant cells, endothelial cells and mesenchymal stem cells served as an in vitro model for human solid tumors. This model system incorporates physiologically relevant features and patient-derived or established malignant cell lines with clinically relevant genetic alterations from many tumor types. Twenty-six patient-derived or established malignant cell lines were evaluated representing sarcoma, melanoma, small cell lung cancer (SCLC), non-small cell lung cancer (NSCLC), as well as bladder, ovarian and pancreatic cancers. The concentration ranges selected for each drug and investigational agent were based upon clinically achievable concentrations if the clinical Cmax of the agent was known.
Compounds. The drugs and compounds olaparib (NSC753686), talazoparib (NSC767125), berzosertib (NSC777718), elimusertib (NSC800525), nedisertib (NSC802822), VX-984 (NSC792969), AZD-1390 (NSC803789), temozolomide (NSC362856), topotecan (NSC609699), trabectedin (NSC813783), staurosporine (NSC755774), and gemcitabine (NSC613327) were obtained from the National Cancer Institute (NCI) Developmental Therapeutics Program Chemical Repository. The FDA-approved anticancer drug set is available from the Developmental Therapeutics Program at https://dtp.cancer.gov/organization/dscb/obtaining/available_plates.htm. […] The stock solutions were prepared in dimethyl sulfoxide (DMSO, Sigma-Aldrich, St. Louis, MO, cat. D2650) at 400-fold the tested concentration and stored at -70 degrees C. Prior to their use, the stock solutions were diluted in fresh medium and the final DMSO concentration in the assay was 0.25% (v/v). All drugs and investigational agents were tested over a range starting from a high concentration at or near the clinical Cmax and decreasing in half-log increments. If the clinical Cmax for an agent had not been determined, the highest concentration tested was 10 microM.
Cell Lines. The patient-derived cancer cell (PDC) lines: 156681-154-R-J1-PDC, 283228-195-R-J1-PDC, 287954-098-R-J1-PDC, 292921-168-R-J2-PDC, 349418-098-R-PDC, 425362-245-T-J1-PDC, 556581-035-R-J1-PDC, and BL0293-F563-PDC were received from the NCI Patient-Derived Models Repository (PDMR, https://pdmr.cancer.gov). The established cell lines HS-SY-2 (RRID:CVCL_8719), MPNST, and SYO-1 (RRID:CVCL_7146) were obtained from the Sloan Kettering Institute. The alveolar soft parts sarcoma cell line ASPS-1 (RRID:CVCL_S738) was established at the NCI and grown from internal seed stocks. The following established cell lines were purchased from the American Type Culture Collection (ATCC, Manassas, VA): G-401 (ATCC, cat. CRL-1441, RRID:CVCL_0270), SW982 (ATCC, cat. HTB-93, RRID:CVCL_1734), VA-ES-BJ (ATCC, cat. CRL-2138, RRID:CVCL_1785), NCI-H719 (ATCC, cat. CRL-5837, RRID:CVCL_1582), NCI-H196 (ATCC, cat. CRL-5823, RRID:CVCL_1509), NCI-H841 (ATCC, cat. CRL-5845, RRID:CVCL_1595), NCI-H1618 (ATCC, cat. CRL-5879, RRID:CVCL_1480), NCI-H1876 (ATCC, cat. CRL-5902, RRID:CVCL_1503), DMS 114 (ATCC, cat. CRL-2066; RRID:CVCL_1174), NCI-H211 (ATCC, cat. CRL-5824; RRID:CVCL_1529), and SW 1271 (ATCC, cat. CRL-2177, RRID:CVCL_1716). The small cell lung cancer cell line COR-L88 was purchased from Sigma-Aldrich (cat. 92031917-1VL, RRID:CVCL_1141). The non-small cell lung cancer cell lines NCI-H226 (RRID:CVCL_1544) and NCI-H322M (RRID:CVCL_1557) were established at the NCI and grown from internal seed stocks. Pooled donor human umbilical vein endothelial cells (HUVEC, Lonza, cat. CC-2519) and human mesenchymal stem cells (hMSC, Lonza, cat. PT-2501) were purchased from Lonza (Walkersville, MD).
Cell Culture. All cells were maintained in an incubator at 37 degrees C and 5% CO2 with 95% humidity. […]

[1] = second compound 0.003 µM, first compound 0.00949 µM
[2] = second compound 0.003 µM, first compound 0.03 µM
[3] = second compound 0.003 µM, first compound 0.0949 µM
[4] = second compound 0.003 µM, first compound 0.3 µM
[5] = second compound 0.003 µM, first compound 0.949 µM
[6] = second compound 0.003 µM, first compound 3 µM
[7] = second compound 0.00949 µM, first compound 0.00949 µM
[8] = second compound 0.00949 µM, first compound 0.03 µM
[9] = second compound 0.00949 µM, first compound 0.0949 µM
[10] = second compound 0.00949 µM, first compound 0.3 µM
[11] = second compound 0.00949 µM, first compound 0.949 µM
[12] = second compound 0.00949 µM, first compound 3 µM
[13] = second compound 0.03 µM, first compound 0.00949 µM
[14] = second compound 0.03 µM, first compound 0.03 µM
[15] = second compound 0.03 µM, first compound 0.0949 µM
[16] = second compound 0.03 µM, first compound 0.3 µM
[17] = second compound 0.03 µM, first compound 0.949 µM
[18] = second compound 0.03 µM, first compound 3 µM
[19] = second compound 0.0949 µM, first compound 0.00949 µM
[20] = second compound 0.0949 µM, first compound 0.03 µM
[21] = second compound 0.0949 µM, first compound 0.0949 µM
[22] = second compound 0.0949 µM, first compound 0.3 µM
[23] = second compound 0.0949 µM, first compound 0.949 µM
[24] = second compound 0.0949 µM, first compound 3 µM
[25] = second compound 0.3 µM, first compound 0.00949 µM
[26] = second compound 0.3 µM, first compound 0.03 µM
[27] = second compound 0.3 µM, first compound 0.0949 µM
[28] = second compound 0.3 µM, first compound 0.3 µM
[29] = second compound 0.3 µM, first compound 0.949 µM
[30] = second compound 0.3 µM, first compound 3 µM
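Also: spheroids exposed to compound for 7 days before viability readout.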
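For viability, T/C in this document: luminescent signal taken as surrogate of viable cell content; 100% = DMSO vehicle control viability and lower means growth inhibition.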

SMILES	IC50 (second compound 0.003 µM)	IC50 (second compound 0.00949 µM)	IC50 (second compound 0.03 µM)	IC50 (second compound 0.0949 µM)	IC50 (second compound 0.3 µM)	viability, T/C [1]	viability, T/C [2]	viability, T/C [3]	viability, T/C [4]	viability, T/C [5]	viability, T/C [6]	viability, T/C [7]	viability, T/C [8]	viability, T/C [9]	viability, T/C [10]	viability, T/C [11]	viability, T/C [12]	viability, T/C [13]	viability, T/C [14]	viability, T/C [15]	also measured
CNCc1ccc(-c2cc(-c3nc(-c4ccc(S(=O)(=O)C(C)C)cc4)cnc3N)on2)cc1 + CC[C@@]1(O)C(=O)OCc2c1cc1n(c2=O)Cc2cc3c(CN(C)C)c(O)ccc3nc2-1	0.198 µM	0.158 µM	< 0.00949 µM	< 0.00949 µM	< 0.00949 µM	109%	93.4%	108%	19.7%	0.19%	0.31%	103%	114%	89.3%	0.67%	0.1%	0.26%	19.1%	3.38%	2.05%	viability, T/C [16]: 0.64%; viability, T/C [17]: 0.05%; viability, T/C [18]: 0.26%; viability, T/C [19]: 2.1%; viability, T/C [20]: 2.08%; viability, T/C [21]: 2.28%; viability, T/C [22]: 0.97%; viability, T/C [23]: 0.06%; viability, T/C [24]: 0.3%; viability, T/C [25]: 2.14%; viability, T/C [26]: 2.11%; viability, T/C [27]: 2.27%; viability, T/C [28]: 1.94%; viability, T/C [29]: 0.24%; viability, T/C [30]: 0.43%
Cn1ncnc1[C@H]1c2n[nH]c(=O)c3cc(F)cc(c23)N[C@@H]1c1ccc(F)cc1 + CC[C@@]1(O)C(=O)OCc2c1cc1n(c2=O)Cc2cc3c(CN(C)C)c(O)ccc3nc2-1	0.453 µM	0.0748 µM	< 0.00949 µM	< 0.00949 µM	< 0.00949 µM	99.9%	97.6%	105%	76.4%	2.29%	2.4%	90.6%	74.2%	45.6%	2.19%	2.05%	2.02%	2.23%	1.81%	2.46%	viability, T/C [16]: 2.34%; viability, T/C [17]: 1.82%; viability, T/C [18]: 2.07%; viability, T/C [19]: 1.93%; viability, T/C [20]: 1.99%; viability, T/C [21]: 2.15%; viability, T/C [22]: 1.75%; viability, T/C [23]: 2.09%; viability, T/C [24]: 1.72%; viability, T/C [25]: 1.85%; viability, T/C [26]: 1.99%; viability, T/C [27]: 1.97%; viability, T/C [28]: 1.59%; viability, T/C [29]: 1.85%; viability, T/C [30]: 1.48%
